Source: ChEMBL document CHEMBL1201862, “PubChem BioAssay data set” (2004)
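Values below derive from 48-hour exposures of cells grown in 96-well plates, with endpoints linearly interpolated between the two concentrations bracketing the appropriate inhibition level. Here, GI50 denotes the concentration required for 50% inhibition of growth.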 The source made the active and inactive calls. No stated cut-off is given here; in the data, active = GI50 up to about 1.1 µM and inactive = higher.

Experiments:
Experiment in all cases: NCI anticancer screen, dose series, 48 h
HCT-116 = tested on: HCT-116
HCT-15 = tested on: HCT-15
SNB-75 = tested on: SNB-75
UACC-257 = tested on: UACC-257
SW-620 = tested on: SW-620
NCI-H522 = tested on: NCI-H522
MDA-MB-231 = tested on: MDA-MB-231
SNB-19 = tested on: SNB-19
SK-OV-3 = tested on: SK-OV-3
T47D = tested on: T47D
SK-MEL-28 = tested on: SK-MEL-28
SF-539 = tested on: SF-539
NCI-H23 = tested on: NCI-H23
EKVX = tested on: EKVX
OVCAR-3 = tested on: OVCAR-3
IGROV-1 = tested on: IGROV-1
SF-268 = tested on: SF-268
HOP-62 = tested on: HOP-62
BT-549 = tested on: BT-549
CAKI-1 = tested on: CAKI-1
OVCAR-4 = tested on: OVCAR-4
SF-295 = tested on: SF-295
SN12C = tested on: SN12C
U-251 = tested on: U-251
SK-MEL-2 = tested on: SK-MEL-2
NCI/ADR-RES = tested on: NCI/ADR-RES
NCI-H460 = tested on: NCI-H460
HT-29 = tested on: HT-29
MDA-MB-435 = tested on: MDA-MB-435
KM12 = tested on: KM12
HL-60 = tested on: HL-60
MCF7 = tested on: MCF7
PC-3 = tested on: PC-3
SR = tested on: SR
TK-10 = tested on: TK-10
A498 = tested on: A498
A549 = tested on: A549
Malme-3M = tested on: Malme-3M
RXF 393 = tested on: RXF 393
CCRF-CEM = tested on: CCRF-CEM
SK-MEL-5 = tested on: SK-MEL-5
MOLT-4 = tested on: MOLT-4
786-0 = tested on: 786-0
MDA-N = tested on: MDA-N
NCI-H226 = tested on: NCI-H226
ACHN = tested on: ACHN
LOX IMVI = tested on: LOX IMVI
DU-145 = tested on: DU-145
M14 = tested on: M14
UO-31 = tested on: UO-31
OVCAR-8 = tested on: OVCAR-8
OVCAR-5 = tested on: OVCAR-5
K562 = tested on: K562
COLO 205 = tested on: COLO 205
Hs-578T = tested on: Hs-578T
RPMI-8226 = tested on: RPMI-8226
HOP-92 = tested on: HOP-92
UACC-62 = tested on: UACC-62
HCC 2998 = tested on: HCC 2998

CCCC(=O)Nc1cc(/C=C/C(=O)N2CC(CCl)c3ccc(N)cc32)n(C)c1 (centres undefined)
GI50 (HCT-116): 129 nM (active) | GI50 (HCT-15): 304 nM | GI50 (SNB-75): 388 nM (active) | GI50 (UACC-257): 195 nM (active) | GI50 (SW-620): 290 nM (active) | GI50 (NCI-H522): < 11.3 nM (active) | GI50 (MDA-MB-231): 275 nM (active) | GI50 (SNB-19): 406 nM (active) | GI50 (SK-OV-3): 470 nM (active) | GI50 (T47D): 158 nM (active) | GI50 (SK-MEL-28): 292 nM (active) | GI50 (SF-539): 220 nM (active) | GI50 (NCI-H23): 145 nM (active) | GI50 (EKVX): 368 nM (active) | GI50 (OVCAR-3): 268 nM (active) | GI50 (IGROV-1): 229 nM (active) | GI50 (SF-268): 259 nM (active) | GI50 (HOP-62): 484 nM (active) | GI50 (BT-549): 193 nM (active) | GI50 (CAKI-1): 44.1 nM (active) | GI50 (OVCAR-4): 188 nM (active) | GI50 (SF-295): 214 nM (active) | GI50 (SN12C): 317 nM (active) | GI50 (U-251): 324 nM (active) | GI50 (SK-MEL-2): 212 nM (active) | GI50 (NCI/ADR-RES): 447 nM (active) | GI50 (NCI-H460): 99.8 nM (active) | GI50 (HT-29): 284 nM (active) | GI50 (MDA-MB-435): 256 nM (active) | GI50 (KM12): 257 nM (active) | GI50 (HL-60): 206 nM (active) | GI50 (MCF7): 122 nM (active) | GI50 (PC-3): 215 nM (active) | GI50 (SR): 24.2 nM (active) | GI50 (TK-10): 112 nM (active) | GI50 (A498): 22.3 nM (active) | GI50 (A549): 29.4 nM (active) | GI50 (Malme-3M): 180 nM (active) | GI50 (RXF 393): 47.4 nM (active) | GI50 (CCRF-CEM): 195 nM (active) | GI50 (SK-MEL-5): 110 nM (active) | GI50 (MOLT-4): 170 nM (active) | GI50 (786-0): 107 nM (active) | GI50 (MDA-N): 219 nM (active) | GI50 (NCI-H226): 282 nM (active) | GI50 (ACHN): 24.8 nM (active) | GI50 (LOX IMVI): 148 nM (active) | GI50 (DU-145): 36.1 nM (active) | GI50 (M14): 337 nM (active) | GI50 (UO-31): 159 nM (active) | GI50 (OVCAR-8): 267 nM (active) | GI50 (OVCAR-5): 375 nM (active) | GI50 (K562): 116 nM (active) | GI50 (COLO 205): 134 nM (active) | GI50 (Hs-578T): 277 nM (active) | GI50 (RPMI-8226): 177 nM (active) | GI50 (HOP-92): 96.4 nM (active) | GI50 (UACC-62): 92 nM (active) | GI50 (HCC 2998): 90.8 nM (active)
